What was measured:
Assay in all cases: relative viability (nuclei count vs DMSO), 5 days (fraction); higher = more cells survive
Tanzisertib + Pictilisib = compound: O[C@H]1CC[C@H](Nc2ncc3nc(Nc4c(F)cc(F)cc4F)n([C@H]4CCOC4)c3n2)CC1 [Tanzisertib] + CS(=O)(=O)N1CCN(Cc2cc3nc(-c4cccc5[nH]ncc45)nc(N4CCOCC4)c3s2)CC1 [Pictilisib] (partner 1 µM)
Summary of the method: (§1)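 Nuclei were stained with Hoechst during a one-step fixation (final 0.05% Triton X-100, 1% formaldehyde, 1 ug/ml Hoechst) carried out 5 days after dosing, then counted on 4× images. The cells, lung cancer lines in 1536-well plates, had been dosed by pin tool the day after seeding with one drug alone or a fixed anchor-drug dose plus five library-drug doses (not always all listed) in √10 steps. Relative viability is the nuclei count in treated wells divided by that in vehicle wells, and each value is the median of duplicate plates.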

[1] = compound: C1CNCCC1C2=CC(=NN2)C3=CC=NC=C3 + CS(=O)(=O)N1CCN(Cc2cc3nc(-c4cccc5[nH]ncc45)nc(N4CCOCC4)c3s2)CC1 [Pictilisib] (partner 1 µM)
Summary of the method: as §1

[2] = compound: C1CNCCC1C2=CC(=NN2)C3=CC=NC=C3 + CS(=O)(=O)CCNCc1ccc(-c2ccc3ncnc(Nc4ccc(OCc5cccc(F)c5)c(Cl)c4)c3c2)o1 [Lapatinib] (partner 2 µM)
Summary of the method: as §1

[3] = compound: C1CNCCC1C2=CC(=NN2)C3=CC=NC=C3 + COc1cc2c(Oc3ccc(NC(=O)C4(C(=O)Nc5ccc(F)cc5)CC4)cc3F)ccnc2cc1OCCCN1CCOCC1 [Foretinib] (partner 0.25 µM)
Summary of the method: as §1

UMC-11
relative viability (Tanzisertib + Pictilisib; first compound 0.08 µM): 0.874 | relative viability (Tanzisertib + Pictilisib; first compound 0.253 µM): 0.85 | relative viability (Tanzisertib + Pictilisib; first compound 0.8 µM): 0.909 | relative viability (Tanzisertib + Pictilisib; first compound 2.53 µM): 0.798 | relative viability (Tanzisertib + Pictilisib; first compound 8 µM): 0.711 | relative viability ([1]; first compound 0.08 µM): 0.698 | relative viability ([1]; first compound 0.8 µM): 1.16 | relative viability ([1]; first compound 2.53 µM): 0.97 | relative viability ([1]; first compound 8 µM): 0.822 | relative viability ([2]; first compound 0.08 µM): 0.73 | relative viability ([2]; first compound 0.8 µM): 1.23 | relative viability ([2]; first compound 2.53 µM): 1.05 | relative viability ([2]; first compound 8 µM): 1.04 | relative viability ([3]; first compound 0.08 µM): 1 | relative viability ([3]; first compound 0.8 µM): 1.17 | relative viability ([3]; first compound 2.53 µM): 1.09 | relative viability ([3]; first compound 8 µM): 1.09

— the supplement of paper PMC10307832
